Assay results: US9927440B2, “Protein engineering” (priority 2009, dated 2018)

B1: wild-type ecRBP: wild-type E. coli ribose-binding protein (protein, listed as Escherichia coli)
chain: MKDTIALVVSTLNNPFFVSLKDGAQKEADKLGYNLVVLDSQNNPAKELANVQDLTVRGTKILLINPTDSDAVGNAVKMANQANIPVITLDRQATKGEVVSHIASDNVLGGKIAGDYIAKKAGEGAKVIELQGIAGTSAARERGEGFQQAVAAHKFNVLASQPADFDRIKGLNVMQNLLTAHPDVQAVFAQNDEMALGALRALQTAGKSDVMVVGFDGTPDGEKAVNDGKLAATIAQLPDQIGAKGVETADKVLKGEKVQAKYPVDLKLVVKQNGGSHHHHHH

Columns and labels:
SN = SN (Staphylococcus aureus, UniProt P00644); settings: Ca2+ and pdTp synergistic; read-out: affinity for SN in the presence of the other ligand; cited from earlier work
[1] = biological target: T1, Staphylococcal nuclease (SN) (Staphylococcus aureus, UniProt P00644); format: binding; settings: SN/L36C; 35.3 °C; from single ΔΔGU measurement; read-out: apparent KD (binary complex)
T1 construct: made in house; host or cells: cell-free TnT, E. coli BL21 Star (DE3) extract
Description: (§1) The rate of labeling of internal cysteine residues was measured by reacting 30-50 μL of ˜0.1 μM protein sample (i.e., ˜3-5 picomoles of protein) with excess IAM-biotin (1 mM unless otherwise stated) at constant temperature (25 mM MOPS, 100 mM KCl and pH 7.6). 5 μL aliquots were removed at fixed time intervals and quenched by addition of 2 μL 2M β-mercaptoethanol (Sigma; M6250). Following addition of 5 μL LDS-buffer (Invitrogen; NP0007) and heating for 2 min at 85° C., (un)labeled protein species were resolved by SDS-PAGE (Novex 4-12% Bis-Tris Gels; Invitrogen; NP0321). […] For the experiment shown in FIG. 8A, ecRBP variant L62C was modified with 1 mM IAM-biotin at 47.1° C., pH 7.6. […] Streptavidin was used to alter the electrophoretic mobility of the labeled protein (Streptavidin bands indicated by a, b, and c). […] Error bars represent the estimated uncertainty of the integrated band intensities (˜2%). For the experiment shown in FIG. 8B, SN variant L36C was labeled with IAM-biotin at 35.3° C., pH 7.6. […] At 29.3° C., 26.3° C. and 23.3° C., kint and klabel were manipulated by increasing the concentration of IAM-biotin from 1 mM to 3.16 mM.
(§2) The modulation of protein stability by binding of metals, ligands, activators, inhibitors, substrates, nucleic acid or other proteins can be used to measure binding affinities within a GUWO. For a protein with a single binding site, the free energy of ligand binding was described by
(§3) [formula] where P was the binding polynomial, [L] the total ligand concentration, and KD the apparent dissociation constant of the ligand. For proteins with multiple ligand-binding sites, P was expanded as described in Equations 21-36 below.
(§4) By thermodynamic linkage, any change in ΔGU caused predominantly by ligand binding (Scheme 1) is ΔGbind=ΔΔ^LGU=Δ^LGU−Δ^apoGU [20] where Δ^LGU and Δ^apoGU were the stability of the protein in the presence of absence of ligand respectively. Equation 20 was used to obtain apparent KD values from either the ligand dependence of ΔΔGU (by curve fitting), or from a single measurement of ΔΔGU.

[2] = biological target: T2, Staphylococcal nuclease (SN) (Staphylococcus aureus, UniProt P00644, L118C/Q162N); format: binding; settings: 50 μM pdTp; 35.3 °C
T2 construct: made in house; host or cells: cell-free TnT, E. coli BL21 Star (DE3) extract
Description: as §1, §2, §3, §4

[3] = literature; cited from earlier work

Molecule | Kd (SN) | Kd [1] | increase in stability (ΔΔGU) of SN/L36C [2] | Tm of wild-type [3]
Cc1cn([C@H]2C[C@H](OP(=O)(O)O)[C@@H](COP(=O)(O)O)O2)c(=O)[nH]c1=O [pdTp] | ~2 µM | 23 ± 4 µM | 0.7 ± 0.2 kcal/mol | –
B1 | – | – | – | 62.6 °C
